ChEMBL document CHEMBL4699524 (Bioorg Med Chem Lett, 2020)

How the values were obtained:
[1] = Selectivity index, ratio of IC50 for antileishmanial activity against Leishmania major IR-173 promastigotes to IC50 for antileishmanial activity against Leishmania donovani 1S promastigotes incubated for 72 hrs by resazurin dye based assay; assay type: functional
[2] = Selectivity index, ratio of IC50 for antileishmanial activity against Leishmania major IR-173 promastigotes to IC50 for antileishmanial activity against Leishmania donovani 9515 promastigotes incubated for 72 hrs by resazurin dye based assay; assay type: functional
[3] = system: Plasmodium falciparum; test: Antiplasmodial activity against chloroquine-sensitive Plasmodium falciparum NF54 by LDH assay; assay type: functional, organism-based
[4] = Selectivity index, ratio of IC50 for CHO cells to IC50 for antileishmanial activity against Leishmania donovani 9515 by resazurin dye based assay; assay type: toxicity; details: hamster, read-out: Ratio IC50
[5] = system: Leishmania donovani; test: Antileishmanial activity against Leishmania donovani 1S promastigotes assessed as inhibition of parasite growth incubated for 72 hrs by resazurin dye based assay; assay type: functional, organism-based
[6] = system: Leishmania major; test: Antileishmanial activity against Leishmania major IR-173 promastigotes assessed as inhibition of parasite growth incubated for 72 hrs by resazurin dye based assay; assay type: functional, organism-based; details: IR-173, 72 h
[7] = Selectivity index, ratio of IC50 for CHO cells to IC50 for antileishmanial activity against Leishmania donovani 1S by resazurin dye based assay; assay type: toxicity; details: hamster, read-out: Ratio IC50
[8] = in vitro; details: hamster, CHO cells
[9] = system: CHO; test: Cytotoxicity against CHO cells assessed as reduction in cell viability by MTT assay; assay type: cell-based; details: Cricetulus griseus
[10] = system: Leishmania donovani; test: Antileishmanial activity against Leishmania donovani 9515 promastigotes assessed as inhibition of parasite growth incubated for 72 hrs by resazurin dye based assay; assay type: functional, organism-based; details: Leishmania donovani, 9515, 72 h
[11] = system: Plasmodium falciparum; test: Antiplasmodial activity against chloroquine-resistant Plasmodium falciparum Dd2 by LDH assay; assay type: functional, organism-based
[12] = system: Leishmania donovani; test: Potency index, ratio of dihydroartemisinin IC50 to test compound IC50 for antileishmanial activity against Leishmania donovani 1S promastigotes incubated for 72 hrs by resazurin dye based assay; assay type: functional
[13] = system: Leishmania donovani; test: Potency index, ratio of artesunate IC50 to test compound IC50 for antileishmanial activity against Leishmania donovani 1S promastigotes incubated for 72 hrs by resazurin dye based assay; assay type: functional
[14] = system: Leishmania donovani; test: Potency index, ratio of artemether IC50 to test compound IC50 for antileishmanial activity against Leishmania donovani 9515 promastigotes incubated for 72 hrs by resazurin dye based assay; assay type: functional
[15] = system: Leishmania donovani; test: Potency index, ratio of artemether IC50 to test compound IC50 for antileishmanial activity against Leishmania donovani 1S promastigotes incubated for 72 hrs by resazurin dye based assay; assay type: functional
[16] = system: Leishmania donovani; test: Potency index, ratio of dihydroartemisinin IC50 to test compound IC50 for antileishmanial activity against Leishmania donovani 9515 promastigotes incubated for 72 hrs by resazurin dye based assay; assay type: functional
[17] = system: Leishmania donovani; test: Potency index, ratio of artesunate IC50 to test compound IC50 for antileishmanial activity against Leishmania donovani 9515 promastigotes incubated for 72 hrs by resazurin dye based assay; assay type: functional

Row | SMILES | Ratio IC50 [1] | Ratio IC50 [2] | IC50 [3] | selectivity ratio [4] | IC50 [5] | IC50 [6] | selectivity ratio [7] | selectivity ratio [8] | IC50 [9] | IC50 [10] | IC50 [11] | Ratio IC50 [12] | Ratio IC50 [13] | Ratio IC50 [14] | Ratio IC50 [15] | Ratio IC50 [16] | Ratio IC50 [17]
1 | C[C@@H]1CC[C@H]2C(C)(C=O)O[C@@H]3O[C@@]4(C)CC[C@@H]1[C@]32OO4 (stereo partly specified) | 3 | 3 | 0.0069 µM | 13 | 8.07 µM | 26.6 µM | > 39 | 4 | > 100 µM | 2.55 µM | 0.0041 µM | – | – | – | – | – | –
2 | C[C@@H]1CC[C@H]2C(C)(COC(=O)c3ccc(-c4ccccc4)cc3)O[C@@H]3O[C@@]4(C)CC[C@@H]1[C@]32OO4 (stereo partly specified) | – | – | 0.0073 µM | 23 | 4.42 µM | 9.87 µM | > 36 | 10 | > 100 µM | 2.8 µM | 0.0069 µM | 30 | 30 | 30 | 30 | 30 | 30
